In brackets after ≈: the same amount, converted by molar mass. Where two headings read alike, the source gives them in different places.
Legend:
A549 = assay: Inhibition of cancer cell growth as measured by cell number, A549; type: cell-based; conditions: Homo sapiens, A549, 48 h, read-out: IC50 A549
PC3 = assay: Inhibition of cancer cell growth as measured by cell number, PC3; type: cell-based; conditions: Homo sapiens, PC-3, 48 h, read-out: IC50 PC3
NEC = assay: Inhibition of cancer cell growth as measured by cell number, NEC; type: cell-based; conditions: Homo sapiens, 48 h, read-out: IC50 NEC
CACO2 = assay: Inhibition of cancer cell growth as measured by cell number, CACO2; type: cell-based; conditions: Homo sapiens, Caco-2, 48 h, read-out: IC50 CACO2
B7474 = assay: Inhibition of cancer cell growth as measured by cell number, B7474; type: cell-based; conditions: Homo sapiens, 48 h, read-out: IC50 B7474
A431 [1] = assay: Inhibition of cell growth by incorporation of [3H]-thymidine, A431; type: cell-based, human; conditions: Homo sapiens, A-431, read-out: IC50 A431
HCT15 = assay: Inhibition of cancer cell growth as measured by cell number, HCT15; type: cell-based; conditions: Homo sapiens, HCT-15, 48 h, read-out: IC50 HCT15
LNCAP = assay: Inhibition of cancer cell growth as measured by cell number, LNCAP; type: cell-based; conditions: Homo sapiens, 48 h, read-out: IC50 LNCAP
LX1 = assay: Inhibition of cancer cell growth as measured by cell number, LX1; type: cell-based; conditions: Homo sapiens, LX-1, 48 h, read-out: IC50 LX1
[2] = molecular target: recombinant human MEK 1 (MAPKK) and recombinant human ERK2 (MAPK); assay: Mitogen Activated Protein Kinase (MAPK) assay, two component coupled MEK 1 / ERK2; type: biochemical; conditions: separate entries for the same compound = evaluated more than one time;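 also: MEK 1-activated ERK2 phosphorylates MBP or Myc peptide with 33P-ATP, filter capture and scintillation counting, inhibitor preincubated with ERK2 30 min at 0 °C, inhibition relative to uninhibited control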
CCRF-CFM = assay: Inhibition of cancer cell growth as measured by cell number, CCRF-CFM; type: cell-based; conditions: Homo sapiens, 48 h, read-out: IC50 CCRF-CFM
MCF7 = assay: Inhibition of cancer cell growth as measured by cell number, MCF7; type: cell-based, human; conditions: Homo sapiens, MCF7, 48 h, read-out: IC50 MCF7, cell number, Sulforhodamine B, 48 hours exposure; Table 5;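 also: MCF7 was included as a line with little or no EGFR or HER2/neu expression, in contrast to the receptor-overexpressing lines of the panel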
Source text: (§1) The cell lines were chosen since they overexpressed epidermal growth factor receptor (EGFR) (i.e. A431) or HER2/neu (SKBR3), or had little to no expression of the these receptors (SW620, LOX, MCF7).

A431 [3] = assay: Inhibition of cancer cell growth as measured by cell number, A431; type: cell-based, human; conditions: Homo sapiens, A-431, 48 h, read-out: IC50 A431, cell number, Sulforhodamine B, 48 hours exposure; Table 6;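 also: human A431 line, picked because it overexpresses epidermal growth factor receptor (EGFR)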
Source text: as §1

SW948 = assay: Inhibition of cancer cell growth as measured by cell number, SW948; type: cell-based; conditions: Homo sapiens, SW948, 48 h, read-out: IC50 SW948
MIP = assay: Inhibition of cancer cell growth as measured by cell number, MIP; type: cell-based; conditions: Homo sapiens, read-out: IC50 MIP
HTB161 = assay: Inhibition of cancer cell growth as measured by cell number, HTB161; type: cell-based; conditions: Homo sapiens, 48 h, read-out: IC50 HTB161
LOX = assay: Inhibition of cancer cell growth as measured by cell number, LOX; type: cell-based, human; conditions: Homo sapiens, LOX, 48 h, read-out: IC50 LOX, cell number, Sulforhodamine B, 48 hours exposure; Table 6;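 also: LOX cells served as a line with low or absent EGFR and HER2/neu expression, in contrast to receptor-overexpressing lines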
Source text: as §1

SW620 = assay: Inhibition of cancer cell growth as measured by cell number, SW620; type: cell-based, human; conditions: Homo sapiens, SW-620, 48 h, read-out: IC50 SW620, cell number, Sulforhodamine B, 48 hours exposure; Table 4;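 also: SW620 was included as a cell line with little or no EGFR or HER2/neu expression, in contrast to receptor-overexpressing lines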
Source text: as §1

T47D = assay: Inhibition of cancer cell growth as measured by cell number, T47D; type: cell-based; conditions: Homo sapiens, 48 h, read-out: IC50 T47D
A27805 = assay: Inhibition of cancer cell growth as measured by cell number, A27805; type: cell-based; conditions: Homo sapiens, 48 h, read-out: IC50 A27805
HL60 = assay: Inhibition of cancer cell growth as measured by cell number, HL60; type: cell-based; conditions: Homo sapiens, HL-60, 48 h, read-out: IC50 HL60
CCL228 = assay: Inhibition of cancer cell growth as measured by cell number, CCL228; type: cell-based; conditions: Homo sapiens, 48 h, read-out: IC50 CCL228
LS174T = assay: Inhibition of cancer cell growth as measured by cell number, LS174T; type: cell-based; conditions: Homo sapiens, 48 h, read-out: IC50 LS174T
CX1 = assay: Inhibition of cancer cell growth as measured by cell number, CX1; type: cell-based; conditions: Homo sapiens, CX-1, 48 h, read-out: IC50 CX1
A2780DDP = assay: Inhibition of cancer cell growth as measured by cell number, A2780DDP; type: cell-based; conditions: Homo sapiens, 48 h, read-out: IC50 A2780DDP
COLO205 = assay: Inhibition of cancer cell growth as measured by cell number, COLO205; type: cell-based; conditions: Homo sapiens, COLO 205, 48 h, read-out: IC50 COLO205
NHEK = assay: Inhibition of cell growth by incorporation of [3H]-thymidine, NHEK; type: cell-based, human; conditions: Homo sapiens, read-out: IC50 NHEK
DU145 = assay: Inhibition of cancer cell growth as measured by cell number, DU145; type: cell-based; conditions: Homo sapiens, DU-145, 48 h, read-out: IC50 DU145
SKBR3 = assay: Inhibition of cancer cell growth as measured by cell number, SKBR3; type: cell-based, human; conditions: Homo sapiens, SK-BR-3, 48 h, read-out: IC50 SKBR3, cell number, Sulforhodamine B, 48 hours exposure; Table 7;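 also: SK-BR-3 cells were selected as a line overexpressing HER2/neu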
Source text: as §1

[4] = molecular target: epidermal growth factor receptor kinase (Homo sapiens, UniProt P00533); assay: biochemical
Procedure: The enzyme was obtained as a membrane extract of A431 cells (American Type Culture Collection, Rockville, MD). A431 cells were grown in T175 flasks to 80% confluency. The cells were washed twice with phosphate buffered saline (PBS) without Ca^2+. Flasks were rotated for 1.5 hours in 20 ml PBS with 1.0 mM ethylenediaminetetraacetic acid (EDTA) at room temperature and centrifuged at 600g for 10 minutes. The cells were solubilized in 1 ml per 5 x 10^6 cells of cold lysis buffer {10mM 4-(2-hydroxyethyl)-1-piperazineethane-sulfonic acid (HEPES), pH 7.6, 10 mM NaCl, 2mM EDTA, 1mM phenylmethyl-sulfonyl-fluoride (PMSF), 10 mg/ml aprotinin, 10 mg/ml leupeptin, 0.1 mM sodium orthovanadate} in a Dounce homogenizer with 10 strokes on ice. The lysate was centrifuged at 600g for 10 minutes first to clear cell debris and the supernatant further centrifuged at 100,000 g for 30 min at 4°C. The membrane pellet was suspended in 1.5 ml HNG buffer (50 mM HEPES, pH 7.6, 125 mM NaCl, 10% glycerol). The membrane extract was divided into aliquots, immediately frozen in liquid nitrogen and stored at -70°C.
Compounds to be evaluated were made into 10 mg/ml stock solutions in 100% dimethylsulfoxide (DMSO). Prior to experiment, stock solutions were diluted to 500 mM with buffer (30 mM Hepes pH 7.4) and then serially diluted to the desired concentration.
An aliquot of the A431 membrane extract (10 mg/ml) was diluted in 30 mM HEPES (pH 7.4) to give a protein concentration of 50 ug/ml. […] To this was added the ^33p-ATP (10 mCi/ml) diluted 1:10 in assay buffer along with the substrate peptide at a concentration of 0.5 mM (control reactions get no test compound) and the reaction was allowed to proceed for 30 min at 30°C. The reaction was stopped with 10% TCA and left on ice for at least 10 min after which tubes were microcentrifuged at full speed for 15 min. The a portion of the supernatants were spotted on P81 phosphocellulose discs and washed twice in 1% acetic acid then water for 5 min each followed by scintillation counting. […] The % inhibition of the test compound was determined for at least three different concentrations and the IC50 value was evaluated from the dose response curve. […] CPM(control) is in units of counts per minute and was a number expressing the amount of radiolabeled ATP (g-^33P) incorporated into the RR-SRC peptide substrate by the enzyme after 30 minutes at 30°C in the absence of test compound as measured by liquid scintillation counting. The CPM values were corrected for the background counts produced by ATP in the absence of the enzymatic reaction. The IC50 values reported in TABLE 1 are averages of the number of tests conducted.

[5] = cell number, Sulforhodamine B, 48 hours exposure, Table 4

epidermal growth factor receptor kinase, sequence (P00533 25-1210): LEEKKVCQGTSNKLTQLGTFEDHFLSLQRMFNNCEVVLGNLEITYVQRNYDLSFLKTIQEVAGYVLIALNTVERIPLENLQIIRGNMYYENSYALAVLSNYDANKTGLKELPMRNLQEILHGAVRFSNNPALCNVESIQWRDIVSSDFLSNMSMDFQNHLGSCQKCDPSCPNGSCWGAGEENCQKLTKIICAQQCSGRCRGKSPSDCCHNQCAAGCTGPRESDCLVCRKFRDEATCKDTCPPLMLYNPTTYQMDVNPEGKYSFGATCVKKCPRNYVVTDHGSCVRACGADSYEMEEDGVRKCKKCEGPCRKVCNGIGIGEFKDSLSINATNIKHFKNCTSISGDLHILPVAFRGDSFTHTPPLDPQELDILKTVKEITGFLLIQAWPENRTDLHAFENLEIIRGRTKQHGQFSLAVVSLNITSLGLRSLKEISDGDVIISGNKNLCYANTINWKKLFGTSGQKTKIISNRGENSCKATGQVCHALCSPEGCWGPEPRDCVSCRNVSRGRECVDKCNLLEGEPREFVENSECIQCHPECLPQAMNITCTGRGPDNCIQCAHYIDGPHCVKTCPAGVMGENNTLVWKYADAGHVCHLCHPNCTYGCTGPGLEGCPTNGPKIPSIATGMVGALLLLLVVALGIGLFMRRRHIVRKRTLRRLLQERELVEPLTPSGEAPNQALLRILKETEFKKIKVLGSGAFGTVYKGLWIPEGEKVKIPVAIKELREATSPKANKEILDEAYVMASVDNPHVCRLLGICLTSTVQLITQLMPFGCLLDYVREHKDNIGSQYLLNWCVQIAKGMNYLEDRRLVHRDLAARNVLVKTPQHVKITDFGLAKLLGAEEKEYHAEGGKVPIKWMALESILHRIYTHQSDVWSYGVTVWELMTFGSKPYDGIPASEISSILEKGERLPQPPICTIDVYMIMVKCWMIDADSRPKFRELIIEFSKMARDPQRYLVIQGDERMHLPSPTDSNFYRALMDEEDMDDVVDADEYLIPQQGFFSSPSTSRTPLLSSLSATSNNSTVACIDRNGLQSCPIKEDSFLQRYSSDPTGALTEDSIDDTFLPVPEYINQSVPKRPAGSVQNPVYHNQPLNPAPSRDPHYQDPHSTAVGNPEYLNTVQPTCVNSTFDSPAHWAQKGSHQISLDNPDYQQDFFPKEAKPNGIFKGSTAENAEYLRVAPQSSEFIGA

Compound | IC50 (A549) | IC50 (PC3) | IC50 (NEC) | IC50 (CACO2) | IC50 (B7474) | IC50 (HCT15) | IC50 (LNCAP) | IC50 (LX1) | IC50 [2] | IC50 (CCRF-CFM) | IC50 (MCF7) | IC50 (A431 [3]) | IC50 (SW948) | IC50 (HTB161) | IC50 (LOX) | IC50 (SW620) | IC50 (T47D) | IC50 (A27805) | IC50 (HL60) | IC50 (CCL228) | other results
COc1cc2ncc(C#N)c(Nc3cccc(Br)c3)c2cc1N [Example 7, 6-Amino-4-[(3-bromophenyl)amino] -7-methoxy-3-quinolinecarbonitrile] | 5.93 µg/mL (≈ 16.1 µM) | 7.22 µg/mL (≈ 19.6 µM) | 5.18 µg/mL (≈ 14 µM) | 2.3 µg/mL (≈ 6.22 µM) | 3.88 µg/mL (≈ 10.5 µM) | 3.98 µg/mL (≈ 10.8 µM) | 2.19 µg/mL (≈ 5.92 µM) | 6.3 µg/mL (≈ 17.1 µM) | 25 µM | 3.44 µg/mL (≈ 9.3 µM) | 5.67 µg/mL (≈ 15.4 µM) | 1.06 µg/mL (≈ 2.86 µM) | 5.85 µg/mL (≈ 15.9 µM) | 2.12 µg/mL (≈ 5.75 µM) | 1.45 µg/mL (≈ 3.92 µM) | 5.84 µg/mL (≈ 15.8 µM) | 5.17 µg/mL (≈ 14 µM) | 4.66 µg/mL (≈ 12.6 µM) | 2.63 µg/mL (≈ 7.13 µM) | 6.25 µg/mL (≈ 16.9 µM) | IC50 (A431 [1]): > 50 µM; IC50 (MIP; [5]): 2.39 µg/mL (≈ 6.48 µM); IC50 (LS174T): 3.23 µg/mL (≈ 8.75 µM); IC50 (CX1): 4.88 µg/mL (≈ 13.2 µM); IC50 (A2780DDP): 4.91 µg/mL (≈ 13.3 µM); IC50 (COLO205): 4.83 µg/mL (≈ 13.1 µM); IC50 (NHEK): 4.5 µM; IC50 (DU145): 1.09 µg/mL (≈ 2.95 µM); IC50 (SKBR3): 5.6 µg/mL (≈ 15.2 µM)
CC#CC(=O)Nc1cc2c(Nc3cccc(Br)c3)c(C#N)cnc2cc1OC [Example 8, N-[4-[(3-Bromophenyl)amino]-3-cyano-7-methoxy-6-guinolinyl]-2-butynamide] | 7.28 µg/mL (≈ 16.7 µM) | 53.4 µg/mL (≈ 123 µM) | 9.3 µg/mL (≈ 21.4 µM) | 2.33 µg/mL (≈ 5.35 µM) | 55.5 µg/mL (≈ 127 µM) | 10.9 µg/mL (≈ 25.1 µM) | 59.4 µg/mL (≈ 137 µM) | 0.932 µg/mL (≈ 2.14 µM) | > 100 µM | 0.823 µg/mL (≈ 1.89 µM) | 53.2 µg/mL (≈ 122 µM) | 9.59 µg/mL (≈ 22 µM) | 86.9 µg/mL (≈ 200 µM) | 98.8 µg/mL (≈ 227 µM) | 0.647 µg/mL (≈ 1.49 µM) | 2.5 µg/mL (≈ 5.75 µM) | 39.5 µg/mL (≈ 90.7 µM) | 0.912 µg/mL (≈ 2.09 µM) | 18.9 µg/mL (≈ 43.5 µM) | 8.67 µg/mL (≈ 19.9 µM) | IC50 (A431 [1]): 40 µM; IC50 [4]: 0.15 µM; IC50 (MIP; [5]): 0.354 µg/mL (≈ 0.813 µM); IC50 (LS174T): 2.03 µg/mL (≈ 4.66 µM); IC50 (CX1): 7.55 µg/mL (≈ 17.3 µM); IC50 (A2780DDP): 6.79 µg/mL (≈ 15.6 µM); IC50 (COLO205): 2.49 µg/mL (≈ 5.72 µM); IC50 (NHEK): 0.2 µM; IC50 (DU145): 6.47 µg/mL (≈ 14.9 µM); IC50 (SKBR3): 38.3 µg/mL (≈ 87.9 µM)
CC#CC(=O)Nc1ccc2ncc(C#N)c(Nc3cccc(Br)c3)c2c1 [Example 15, N-[4-[(3-Bromophenyl)amino]-3-cyano-6-quinolinyl]-2-butynamide] | > 33 µg/mL | > 33 µg/mL | > 33 µg/mL | 2.41 µg/mL (≈ 5.94 µM) | > 33 µg/mL | > 33 µg/mL | > 33 µg/mL | > 33 µg/mL | > 100 µM | > 33 µg/mL | > 33 µg/mL | 22 µg/mL (≈ 54.3 µM) | > 33 µg/mL | 33 µg/mL (≈ 81.4 µM) | > 33 µg/mL | 33 µg/mL (≈ 81.4 µM) | > 33 µg/mL | 33 µg/mL (≈ 81.4 µM) | > 33 µg/mL | > 33 µg/mL | IC50 [4]: 0.0006 µM; IC50 (MIP; 48 h): 33 µg/mL (≈ 81.4 µM); IC50 (LS174T): > 33 µg/mL; IC50 (CX1): 33 µg/mL (≈ 81.4 µM); IC50 (A2780DDP): 33 µg/mL (≈ 81.4 µM); IC50 (COLO205): 33 µg/mL (≈ 81.4 µM); IC50 (NHEK): 4 µM; IC50 (DU145): 18 µg/mL (≈ 44.4 µM); IC50 (SKBR3): > 33 µg/mL

— patent EP0973746B1, “SUBSTITUTED 3-CYANO QUINOLINES” (Wyeth Holdings Corporation, priority 1997, dated 1998)
